According to patent publication EP0975351B1, “TREATMENT OF MULTIPLE SCLEROSIS THROUGH INGESTION OF COPOLYMER-1” (YEDA RESEARCH AND DEVELOPMENT CO. LTD., priority 1997, dated 1998):

Assays:
[1] = test system: MBP-specific T suppressor Inducer factor; experiment: Assay for MBP-specific T suppressor inducer factor in plasma (3C9 antibody); assay type: in vivo, Rhesus Monkeys; details: for MBP-specific T suppressor Inducer factor: plasma 1:20 dilution; for anti-Tsfi (3C9 Ab): plasma material bound to MBP (2.5µg)
Description: The analysis, for MBP-specific Tsfi in the plasma of the three monkeys in this Example are seen in Tables 5 and 6 below. None of the animals produced MBP-specific Tsfi until day +13 following EAE induction with MBP. […] Glatiramer acetate fed animals 18497 and 18498 consistently produced significant levels of Tsfi from day +13 until day +41 shortly before termination.
Recombinant human TGF-beta reacted with the anti-TGF-beta, but not 3C9 antibody. Table 5: Assay for MBP-specific T suppressor Inducer factora

CSF WBCs = experiment: Flow cytometry of cerebral spinal fluid (CSF) cells; assay type: in vivo, Rhesus Monkeys
Experimental: 3 Rhesus monkeys were treated as follows: One monkey served as control and was fed with placebo capsules (containing 5mg glucose only). The second and third monkeys were fed with glatiramer acetate containing capsules at a dose of 1mg/feeding and 20mg/feeding, respectively. Animals were fed every other day for a total of 10 feedings: 5 times prior to disease induction (immunization on day 0) and then 5 times after immunization.
Disease was induced on day 0 by an intradermal injection of 8mg bovine - MBP and 3 mg H37Ra M. tuberculosis in FCA into the hind footpads, total injected volume between 0.1 and 0.15 ml per footpad. The animals were followed for clinical manifestations of EAE, a variety of serum and CSF immunological markers and spinal cord and cranial MRI's.
The Epics C flow cytometer was used to analyze both peripheral blood lymphocytes (PBL) and cerebral spinal fluid (CSF) collected from each monkey. The red blood cells were lysed and the remaining white blood cells (WBCs) were washed and stained using standard methods with appropriate reagents. Tables 3 and 4 below show the data from staining PBL and CSF WBCs from the three animals in this Example.

EAE = EAE in Rhesus monkeys, enteric-coated versus cracked coating capsules (Example 4); assay type: in vivo; details: for protection from the disease: Fig. 10
Experimental: Six monkeys were treated and subsequent analyses performed substantially according to the protocol described for Example 3 hereinabove.
Control placebo-fed animal 18746 was fed with capsules containing glucose. Animal 18586 was fed with 1 mg glatiramer acetate in capsules with cracked […]. Animal 18586 was fed with 1 mg glatiramer acetate in capsules with cracked enteric coating. Animal 18639 was fed with 20 mg glatiramer acetate in capsules with cracked enteric coating. […] Animal 18962 was fed with 20 mg glatiramer acetate in intact enteric coated capsules.
The schedule of feeding, disease induction and follow-up were substantially the same as those of Example 3 described hereinabove.

spleen cells = experiment: Proliferation assay of spleen cells in response to GPBP, fed mice; assay type: cell-based; details: spleen cells of orally fed mice, 10-11 days after EAE induction (Figure 2)
Experimental: Induction and Assessment of EAE - Mice were injected with 200 µg GPBP emulsified in an equal volume of complete Freund's adjuvant (CFA) containing 4 mg/ml mycobacterium tuberculosis (H37Ra) (Difco Lab, Detroit, Mich.). The emulsion at a total volume of 0.1 ml was injected into all four footpads. Immediately after and 24 hours later, pertussis toxin (250ng/mouse) (Sigma) was injected intravenously.
Induction of Oral Tolerance - Mice were fed with 250 µg GPBP or glatiramer acetate dissolved in phosphate buffered saline (PBS) on days -7, -5, -3, 0, 2, 4 and 6 by gastric intubation with an 18-gauge stainless steel feeding needle (Thomas). EAE was induced on day 0.
Proliferation Assay - The proliferation response of spleen cells was tested 10-11 days after EAE induction as described above. Cells from 3 animals in each group were pooled and cultured in triplicate (5x10^5 mouse cells and 2x10^5 rat cells) in microtiter plates with various antigen concentrations (GPBP) in a final volume of 0.2ml. Microtiter plates contained RPMI 1640 (available from Sigma Biochemicals, St. Louis, Missouri) culture medium supplemented with 1% autologous serum. After 72 hr. of incubation, cells were pulsed with 1 µCi {^3H}-thymidine for 18 hr and then harvested onto filter papers and radioactivity was counted.

[2] = animal 18497, 1mg/feeding then 20mg capsules after day 33, day +41
[3] = animal 18497, 1mg/feeding, day +6
[4] = animal 18497, 1mg/feeding, day +13
[5] = animal 18497, 1mg/feeding, day +27
[6] = animal 18498, 20mg/feeding, day +6
[7] = animal 18498, 20mg/feeding, day +13
[8] = animal 18498, 20mg/feeding, day +27
[9] = animal 18498, 20mg/feeding, day +34
[10] = animal 18498, 20mg/feeding, day +41
[11] = capsules with cracked enteric coating, 1 mg (animal 18586) and 20 mg (animal 18639)

With glatiramer acetate the “MBP-specific T suppressor Inducer factor” value ([1]; animal 18497, 1mg/feeding then 20mg capsules after day 33, day +34) was “.66 OD at 405nm”, the “MBP-specific T suppressor Inducer factor” value [1, 2] was “.76 OD at 405nm” and the “MBP-specific T suppressor Inducer factor” value [1, 3] was “none”. The “MBP-specific T suppressor Inducer factor” value [1, 4] was “.60 OD at 405nm”, the “MBP-specific T suppressor Inducer factor” value ([1]; animal 18497, 1mg/feeding, day +20) was “.61 OD at 405nm” and the “MBP-specific T suppressor Inducer factor” value [1, 5] was “.56 OD at 405nm”. The “MBP-specific T suppressor Inducer factor” value ([1]; animal 18497, 1mg/feeding, day -1) was “none”, the “MBP-specific T suppressor Inducer factor” value ([1]; animal 18497, 1mg/feeding, day -13) was “none” and the “MBP-specific T suppressor Inducer factor” value [1, 6] was “none”. For the same substance, the “MBP-specific T suppressor Inducer factor” value [1, 7] was “.32 OD at 405nm”, the “MBP-specific T suppressor Inducer factor” value ([1]; animal 18498, 20mg/feeding, day +20) was “.32 OD at 405nm” and the “MBP-specific T suppressor Inducer factor” value [1, 8] was “.42 OD at 405nm”. For the same substance, the “MBP-specific T suppressor Inducer factor” value [1, 9] was “.40 OD at 405nm”, the “MBP-specific T suppressor Inducer factor” value [1, 10] was “.40 OD at 405nm” and the “MBP-specific T suppressor Inducer factor” value ([1]; animal 18498, 20mg/feeding, day -1) was “none”. For the same substance, the “MBP-specific T suppressor Inducer factor” value ([1]; animal 18498, 20mg/feeding, day -13) was “none”, the “anti-Tsfi (3C9 Ab)” value [1, 2] was 0.76 OD405 nm and the “anti-Tsfi (3C9 Ab)” value [1, 3] was “none”. For the same substance, the “anti-Tsfi (3C9 Ab)” value [1, 4] was 0.60 OD405 nm, the “anti-Tsfi (3C9 Ab)” value [1, 5] was 0.56 OD405 nm and the “anti-Tsfi (3C9 Ab)” value [1, 6] was “none”. The “anti-Tsfi (3C9 Ab)” value [1, 7] was 0.32 OD405 nm, the “anti-Tsfi (3C9 Ab)” value [1, 8] was 0.42 OD405 nm and the “anti-Tsfi (3C9 Ab)” value [1, 10] was 0.40 OD405 nm. For the same substance, the “Cells µl” value (CSF WBCs; animal 18497, 1mg/feeding, day 0) was “few cells”, the “Cells µl” value (CSF WBCs; animal 18498, 20mg/feeding, day 0) was “too few cells” and the “CD4+” value (CSF WBCs; [8]) was 47. The “CD4+ CD45RA+” value (CSF WBCs; [8]) was 8, the “Cells µl” value (CSF WBCs; [8]) was 29.7 and the “Cells µl” value (CSF WBCs; [9]) was “too few cells”. The “time to death from disease manifestations” value (EAE; [11]) was 2 to 3 days, the “protection from the disease” value (EAE; [11]) was “not protected from the disease” and the “protection from the disease” value (EAE; intact enteric coated capsules, 1 mg, 10 mg, 20 mg (animals 18724, 18810, 18962)) was “fully protected from the disease”. For the same substance, the “signs of EAE” value (EAE; intact enteric coated capsules, 1 mg, 10 mg, 20 mg, until day 60 when sacrificed) was “developed no signs of EAE until day 60” and the “proliferative responses to GPBP” value (spleen cells) was “almost complete inhibition”.
